One may read the IC50 as the concentration that inhibits the measured activity by half.

The text below walks through data of ChEMBL document CHEMBL1201862, “PubChem BioAssay data set” (2004).

The source made the active and inactive calls. No stated cut-off is given here; in the data, active = IC50 of 10 µM or less and inactive = more. Where only a bound is given, the exact number is not on record here.

The test addresses T1, Serine/threonine-protein phosphatase (Homo sapiens, UniProt Q9BPW0).
T1 sequence (Q9BPW0 whole entry): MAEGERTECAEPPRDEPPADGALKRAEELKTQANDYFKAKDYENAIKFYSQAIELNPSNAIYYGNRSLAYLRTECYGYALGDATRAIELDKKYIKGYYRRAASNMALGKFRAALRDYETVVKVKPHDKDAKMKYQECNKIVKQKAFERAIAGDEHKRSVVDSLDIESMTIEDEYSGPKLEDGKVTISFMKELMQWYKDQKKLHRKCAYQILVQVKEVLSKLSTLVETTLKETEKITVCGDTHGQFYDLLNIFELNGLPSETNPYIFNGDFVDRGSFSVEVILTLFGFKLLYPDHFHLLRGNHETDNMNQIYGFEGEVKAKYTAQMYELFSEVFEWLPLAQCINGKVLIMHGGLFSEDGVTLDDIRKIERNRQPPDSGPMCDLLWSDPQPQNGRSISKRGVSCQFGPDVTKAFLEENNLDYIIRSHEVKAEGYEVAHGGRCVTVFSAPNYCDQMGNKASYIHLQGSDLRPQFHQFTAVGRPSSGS
In words: inhibition of protein phosphatase 5 activity – biochemical, fluorescence, dose response (AID 2395).

Take `C=CCn1c(NC(=O)c2ccccc2Cl)c(C#N)c2nc3ccccc3nc21`: the IC50 is > 7.45 µM (active).
